From article PMC11915509, “Small molecule inhibitors of hnRNPA2B1–RNA interactions reveal a predictable sorting of RNA subsets into extracellular vesicles” (Nucleic Acids Research, 2025)
Where “and” joins values, the source holds several entries; their conditions need not be identical. Identical values can stand only once.

Columns and labels:
EXO-motif RNA probe = experiment: Absorbance scan of compounds mixed with EXO-motif RNA; type: binding; details: EXO-motif probe, 1:5 micromolar ratio with compound, room temperature
Experimental: (§1) Five μM RNA EXO motif were mixed with 25 μM compounds in AlphaBuffer (25 mM HEPES, pH 7.4, 100 mM NaCl, 0.01% BSA) to a final volume of 20 μl. Absorbance spectrum (200–530 nm) was measured using Tecan Spark® microplate reader with a NanoQuant plate at room temperature. In fluorescence indicator displacement (FID), a 2× final concentration of Midori green advanced (Resnova) was added to the samples and the melting curve measured using Bio-Rad CFX96™ System from 30°C to 90°C.

EXO-motif RNA = experiment: Fluorescence indicator displacement (FID) melting curve, EXO-motif RNA; type: binding; details: 5 μM RNA, 25 μM compound, Midori green
Experimental: as §1

[1] = tested on: hnRNPA2B1 and TDP43 bound RNA (miR-221, miR-1910); experiment: RNA immunoprecipitation (RIP) on cytoplasmic lysates of treated NSC34 cells; type: cell-based, mouse; details: 6 h treatment, anti-hnRNPA2B1 and anti-TDP43 RIP
Experimental: Flow cytometry of a fraction of RNA immunoprecipitation (RIP) experiments, consisting of RNA/protein-antibody-bead complexes, was performed on the same instrument using a sequential gating with Streptavidin beads alone ± antibodies (this signal corresponded to background). Pyronin Y (PY) was used at a final concentration of 50 ng/ml and the PY-positive events recorded for 1 min.
Approximately 2 × 10^6 cells were used for each RIP experiment, performed as already described, without cross-linking steps and using 0.5 μg/ml of antibodies. Beads-precipitated samples were divided for immunoblotting or TRIzol-based RNA isolation. Densitometric analysis obtained using Image J software (v.1.54). miRNA TaqMan probes were bought from Thermo Fisher with the following codes: miR-221 (477 981), miR-1910 (479 581), and miR-126 (4 427 975).

[2] = biological target: T1, hnRNPA2B1-EXOmotif interaction (Homo sapiens, UniProt P22626); experiment: AlphaScreen dose-response, inhibition of hnRNPA2B1-EXOmotif RNA interaction; type: binding; details: AlphaScreen dose-response with RNA EXOmotif, one site fitting
T1 construct: purified a human full-length, GST-tagged protein expressed in Escherichia coli cells; made in house; host or cells: E. coli BL21 (DE3)
T1 sequence (P22626 whole entry): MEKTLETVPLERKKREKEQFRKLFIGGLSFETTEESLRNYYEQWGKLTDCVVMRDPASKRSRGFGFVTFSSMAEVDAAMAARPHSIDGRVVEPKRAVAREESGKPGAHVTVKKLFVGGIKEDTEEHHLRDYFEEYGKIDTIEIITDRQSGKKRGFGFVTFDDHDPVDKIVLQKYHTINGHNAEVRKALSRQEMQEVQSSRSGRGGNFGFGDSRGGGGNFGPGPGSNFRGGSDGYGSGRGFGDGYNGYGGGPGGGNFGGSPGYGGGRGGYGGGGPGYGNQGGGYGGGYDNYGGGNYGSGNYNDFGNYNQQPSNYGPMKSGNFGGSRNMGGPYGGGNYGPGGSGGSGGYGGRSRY
Experimental: The assays were performed in OptiPlate-384-well plates (PerkinElmer, 6007299) in 20 μl final volume. The ligands were diluted in AlphaBuffer [25 mM HEPES, pH 7.4, 100 mM NaCl, 0.01% bovine serum albumin (BSA)] and tested using AlphaScreen GST Detection Kit (PerkinElmer, 6760603C). […] For the reactions, 4 μl of the RNA probes were first added to the plate, then 16 μl of a mix containing all the other components was added, and the plate was incubated at room temperature for 1 h in the dark.
The high-throughput drug screening was performed in a total volume of 20 μl using 17 nM of RNA EXO motif (chosen below the hooking point), 30 nM GST-hnRNPA2B1, and 250 nM of compounds belonging to mass spectrometry (MS) Spectrum Collection library (MicroSource, 2000 compounds). Compounds were dispensed into white 384-well Optiplates (PerkinElmer) using Echo 650 acoustic dispenser (Beckman Coulter) followed by the addition of protein in Alpha Buffer using the EL460 dispenser (BioTek). After 15 min of incubation, RNA probes were added by Echo 650 acoustic dispenser, while Donor and Acceptor beads from the GST detection kit (Perkin Elmer) were dispensed by EL460 instrument. Following 60 min of incubation, Alpha signal was detected using Enspire plate reader instrument (PerkinElmer). The raw Alpha counts were normalized to Dimethyl sulfoxide (DMSO)-treated controls within every plate.

[3] = tested on: hnRNPA2B1 protein association with purine-rich RNA probe; experiment: RNA pull-down with biotinylated EXOmotif probe after cell treatment, immunoblotting; type: cell-based, mouse; details: NSC34 cells, 6 h, 5 μM compound
Experimental: To prepare native protein lysates, 1–3 × 10^6 NSC34 cells were lysed in buffer R-Lysis [25 mM HEPES, pH 7.5, 100 mM NaCl, 1× protease inhibitor (Thermo Fisher, 78429)] and subjected to a water-bath sonication (35–40 amplitude, 6–7 cycles of 7 s on and 45 s off). After a centrifugation at 14 000 rpm for 20 min at 4°C, the supernatant was collected and 200 μg were incubated with 5 μl of buffer equilibrated Dynabeads^TM M-280 Streptavidin (Invitrogen, 11205D) for 15 min at 4°C in rotation to perform a pre-clearing step. After the magnetic separation, the pre-cleared lysate was incubated with 10 μl of 100 μM RNA biotinylated probes (or 400 ng of biotinylated EV-RNA) and incubated for 1 h at 4°C in rotation. Then, 5 μl/sample of beads were added and the sample were put again in rotation for 20 min at 4°C. […]
Cells were lysed in lysis buffer [50 mM Tris–HCl, pH 7.4, 150 mM NaCl, 1 mM EDTA, 0.25% NP-40, 0.1% Triton X-100, 0.1% sodium dodecyl sulphate, 1× protease inhibitor (Thermo Fisher, 78429)]. […] The signal was measured with Amersham ECL HRP-Conjugated Antibodies (Cytiva) using BioRad Chemidoc XRS+.

NF-kB = NF-kB luciferase reporter in EV-recipient HEK293T cells; type: cell-based, human; details: EVs from hnRNPA2B1 OE HEK293T donor cells treated 5 μM 6 h; recipient cells 8 h
Excerpt: To obtain some preliminary information on the bioactivity of identified compounds in relation to EV function, we explored the potential activation NF-kB in EV-recipient cells as a readout. […] We, therefore, used HEK293T cells as EV-recipient cells upon transfecting them with an NF-kB-responsive promoter activating the luciferase reporter. To work with an experimental set up considering the post-transcriptional effects on the readout, we evaluated if the expression of the recombinant hnRNPA2B1 could induce secretion of EVs capable of activating NF-kB if further exposed to autologous cells. […] We, therefore, exploited this system to test compounds including some indication on the relevance of the EV-RNA cargo in mediating the luciferase activation in recipient cells. […] Next, we washed with PBS and incubated cells with serum-free media for additional 24 h to recover EVs. We exposed these EVs for 8 h to HEK293T cells previously seeded in 96-well plate and transfected with the luciferase reporter plasmid for 24 h. […]
Paracrine effect on NF-kB activation of EVs deriving from RBP-conditioned and treated cells. […] Firefly luminescence was normalized on cellular protein content at the end point on the corresponding sample. […]

Question: With `O=C1C=C2CC3(O)COc4c(ccc(O)c4O)C3=C2C=C1O` (stereo not drawn) [H, hematein] as the molecule, how does the “absorbance shifts, 300-400 nm” value (EXO-motif RNA probe) read?
Answer: absorbance shifts

Question: What about the “thermal shift of the EXO-motif RNA” value (EXO-motif RNA) of the same molecule?
Answer: 9.5 °C

Question: And the “percentage of bound targets (miR-221, miR-1910)” value [1]?
Answer: significantly reduced

Question: What about the IC50 [2] of the same molecule?
Answer: ~0.1 µM and 0.0999 µM

Question: And the “association of hnRNPA2B1 protein with exogenous purine-rich RNA probe” value [3]?
Answer: most effective

Question: And the “EV-mediated, hnRNPA2B1-induced NF-kB activation” value (NF-kB)?
Answer: significantly counteracted
